According to patent EP0320630A1, “Enantiometric iodobenzamides” (THE VANDERBILT UNIVERSITY, priority 1987, dated 1989):

Tests used:
dopamine D-2 receptor [1] = target: T1, dopamine D-2 receptor (Rattus norvegicus, UniProt P61169); assay: Blocking of [3H]spiperone binding to rat striatal membranes; details: radioligand [3H]spiperone at 0.5 nM; rat striatal membrane preparation; 30 min at 37 °C
T1 construct: 90 µL of the striatal membrane preparation; from tissue; host or cells: rat striatum (membrane homogenate)
T1 sequence (P61169 whole entry): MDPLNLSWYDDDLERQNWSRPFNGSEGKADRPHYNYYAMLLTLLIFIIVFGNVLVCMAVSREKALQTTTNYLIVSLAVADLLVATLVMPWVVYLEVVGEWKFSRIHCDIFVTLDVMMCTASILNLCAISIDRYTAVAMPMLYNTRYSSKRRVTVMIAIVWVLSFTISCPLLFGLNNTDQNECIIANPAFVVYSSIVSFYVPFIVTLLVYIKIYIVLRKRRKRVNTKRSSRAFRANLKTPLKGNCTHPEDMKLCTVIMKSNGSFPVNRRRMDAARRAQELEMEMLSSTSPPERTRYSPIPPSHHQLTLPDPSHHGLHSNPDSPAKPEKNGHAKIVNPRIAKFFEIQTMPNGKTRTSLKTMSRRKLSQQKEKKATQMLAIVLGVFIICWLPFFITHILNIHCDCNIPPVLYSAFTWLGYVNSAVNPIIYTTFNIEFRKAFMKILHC
Description: (§1) The procedure, described by de […]., and Beart P.M., Eur. J. Pharmacol. 106 133-139 (1984), is as follows: Male Sprague-Dawley rats (150-200 g) were killed by decapitation and their brains quickly removed and dissected on ice. Striata were dissected and homogenized in 40 vol of ice-cold 50 mM Tris-HCl buffer (pH 7.4) containing 120 mM sodium chloride, 5 mM potassium chloride, 2 mM calcium chloride, and 1 mM magnesium chloride using a Brinkman Polytron. The suspension was centrifuged at 30,000 x g for 10 min at 4 °C, and the pellet was resuspended in 40 vol of fresh buffer. The suspension was incubated at 37 °C for 10 min, centrifuged again at 30,000 x g for 10 min at 4 °C, and the final pellet was resuspended with the polytron in 200 vol of ice cold buffer. […] Tubes were incubated for 30 min at 37 °C, poured over Whatman GF/B filters under vacuum, and the filters were rinsed three times with 4 mL of ice cold buffer.

dopamine D-2 receptor [2] = target: T1, dopamine D-2 receptor; assay: Blocking of [3H](S)-sulpiride binding to rat striatal membranes; details: radioligand [3H](S)-sulpiride at 5.0 nM; rat striatal membrane preparation; 30 min at 37 °C
Description: as §1

IC50 (dopamine D-2 receptor [1]) | IC50 (dopamine D-2 receptor [2]) | SMILES
560 ± 200 nM | 145 ± 5 nM | CCN1CCC[C@@H]1CNC(=O)c1cc(I)ccc1OC
16.4 ± 4.9 nM | 3.3 ± 0.9 nM | CCN1CCC[C@H]1CNC(=O)c1cc(I)ccc1OC
